Results taken from publication PMC11912270, “Synthesis and SAR Studies of Acyl-Thiourea Platinum(II) Complexes Yield Analogs with Dual-Stage Antiplasmodium Activity” (ACS Medicinal Chemistry Letters, 2025).

Columns and labels:
[1] = test system: Chinese hamster ovary (CHO) cell line; assay: MTT cytotoxicity assay; type: cell-based; conditions: Cricetulus griseus, CHO, 48 h, read-out: CHO IC50
Experimental: 1.6.In vitro cytotoxicity assay
A 3-(4,5-dimethylthiazol-2-yl)-2,5-diphenyltetrazoliumbromide (MTT) assay was used to screen the metal complexes against the mammalian Chinese hamster ovarian (CHO) cell line.
A stock solution of each compound (2 mg/mL) in DMSO was prepared and kept at -20 °C until needed. Emetine was used as a reference drug. A starting concentration of 100 µg/mL was used, and serially diluted ten-fold using a complete medium to give the lowest concentration of 0.001 µg/mL (6 dilutions). The plates containing the CHO cells under drug pressure were […]
Plates containing the drug and cell suspension were developed by adding 25 μL of sterile MTT (Thermo Fisher Scientific) (25 µL) to each well, followed by 4 h […]
of incubation at room temperature in the dark. The plates were then centrifuged, and the supernatant was removed via aspiration. Sample absorbance was read at a wavelength of 540 […]
analysis via GraphPad Prism v.4.0 software. The IC50 values were determined for each compound were determined from the dose-response curves. […]

PfNF54 = assay: 72 h pLDH assay, PfNF54 (precursor compounds); type: cell-based, Plasmodium falciparum
Experimental: Lastly, the pharmacological effect of substitution with a methyl group at different positions on the bpy ring was determined (SAR4). Changing from the 4,4′-positions (C2) to the 5,5′-positions (C14) improved the PfNF54 activity by 5-fold, whereas changing to the 6,6′-positions (C15) decreased the activity by 2-fold.

Pf3D7 strain = conditions: cited from earlier work
PfK1 = conditions: cited from earlier work

Compound | IC50 [1] [µM] | IC50 (PfNF54; Plasmodium falciparum, 72 h, read-out: PfNF54 IC50) [µM] | inhibition of Pf proliferation (PfNF54; maximum concentration of 5 μM, PfNF54) | fold increase in activity compared to CQ (Pf3D7 strain) [fold] | fold increase in activity compared to CQ (PfK1) [fold]
O=C(NC(=S)N(CCO)CCO)c1ccccc1 [compound 2] | > 50 | > 5 | did not inhibit Pf proliferation |  | 
ferroquine [FQ] |  |  |  | 1.7 | 25
